The source of these data is patent US8309767B2, “2-aminobenzoyl derivatives” (Neurim Pharmaceuticals (1991) Ltd., priority 2003, dated 2012).

In one experiment the test system is MPTP-treated mice. The experiment is described as follows: Anti-Parkinsonian activity: motor activity of MPTP-treated mice with/without a subthreshold dose of L-Dopa. To be noted: for LOCOMOTION / REARING / TOTAL ACTIVITY: mean ± SD. It is filed as in vivo, C57 BL/6 mice. The procedure: Evaluation of the anti-Parkinsonian activity using MPTP-treated mice with/without a subthreshold dose of L-Dopa
Animals: six month old male C57 BL/6 mice, weighing 22-25 g were used. Following arrival at the laboratory, the mice were allowed to acclimatise for two weeks in a room with controlled temperature (21±1° C.), and a constant light-dark schedule (12 hr on/12 hr off, lights on between 06.00 and 18.00 hrs). Free access to food and water was maintained throughout. They were housed in groups of 12 animals and tested only during the hours of light (08.00-15.00 hrs). All testing was performed in a normally lighted room. Each test chamber (i.e. activity test cage) was placed in a soundproofed wooden box with 12 cm thick walls and front panels and had dimmed lighting.
Behavioral measurements and apparatus: An automated device, consisting of macrolon rodent test cages (40×25×15 cm) each placed within two series of infra-red beams (at two different heights, one low and one high, 2 and 8 cm, respectively, above the surface of the sawdust, 1 cm deep), was used to measure spontaneous and/or drug-induced motor activity of MPTP and control mice. The following parameters were measured: LOCOMOTION was measured by the low grid of infrared beams. Counts were registered only when the mouse in the horizontal plane, ambulating around the test-cage. REARING was registered throughout the time when at least one high level beam was interrupted, i.e. the number of counts registered was proportional to the amount of time spent rearing. TOTAL ACTIVITY was measured by a sensor (a pick-up similar to a gramophone needle, mounted on a lever with a counterweight) with which the test cage was constantly in contact. The sensor registered all types of vibration received from the test cage, such as those produced both by locomotion and rearing as well as shaking, tremors, scratching and grooming.
Behavioral measurements (locomotion, rearing and total activity): Twelve days after MPTP injections (2×40 mg/kg, s.c., 24 hr interval), the mice were injected i.p with 2-(2-aminobenzoyl)-N-(2,4-dinitrophenyl)ethylamine (0.3, 1, 3, 10 mg/kg) or vehicle (10% DMSO, 1% CMC) and immediately thereafter placed in the activity test chambers and their motor behaviour were monitored for 60 min. After 60 min, the mice were injected with 5 mg/kg L-Dopa (s.c) and then replaced in the test chamber and activity measurements maintained for a further 240 min. Each dose was separated by two days, starting from the lowest dose.
Table 1 presents the mean (± standard deviations) locomotion, rearing and total activity counts of MPTP-treated and control mice administered either 2-(2-aminobenzoyl)-N-(2,4-dinitrophenyl)ethylamine or vehicle administered with a subthreshold dose of L-Dopa. 1 % level of significance is represented by an asterisk (Tukey HSD test).

The test system of the next experiment is NMDA receptors. Description: Electrophysiological characterisation of NMDA-activated currents in freshly isolated hippocampal neurones (whole-cell patch clamp). To be noted: rat hippocampal neurones. It is filed as cell-based. How it is done: Electrophysiological characterisation of NMDA-activated currents in freshly isolated hippocampal neurones of rat.
Isolation of hippocampal neurons: Wistar rats (12-14 days) were decapitated without anaesthesia and the hippocampus was removed. It was manually cut into slices (0.2-0.4 mm), in a solution containing (mM): 150 NaCl; 5 KCl; 1.25 NaH2PO4; 2 CaCl2; 2 MgCl2; 26 NaHCO3; 20 glucose. Slices were preincubated in this solution for 30 min at room temperature. The enzymatic treatment proceeded in the same solution with lower Ca2+ concentration (0.5 mm) containing 0.4 mg/ml protease from aspergillus oryzae. The incubation in the enzyme solution proceeded at 32° C. within 10 min. […]
Current recording and data analysis: The drug-containing solutions were applied by the fast “concentration clamp” method using “jumping table” set-up (Pharma Robot, Kiev). The currents were recorded with patch clamp technique in the whole-cell configuration. […]
NMDA-activated currents: The currents were filtered at 3 kHz (three-pole active Bessel filter) digitally sampled at the rate […] for NMDA activated currents. NMDA-induced transmembrane currents were measured in the presence of 10 μM glycine and 300 μM L-aspartate in the control and test solutions. The currents were recorded at holding potential −70 mV. […]

[1] abbreviates: MPTP mice, 0.3 mg/kg i.p. with subthreshold L-Dopa 5 mg/kg s.c.
Where [2] appears, read: MPTP mice, 1 mg/kg i.p. with subthreshold L-Dopa 5 mg/kg s.c., * 1% significance.
Setting [3] is: MPTP mice, 3 mg/kg i.p. with subthreshold L-Dopa 5 mg/kg s.c., * 1% significance.
Setting [4] is: MPTP mice, 10 mg/kg i.p. with subthreshold L-Dopa 5 mg/kg s.c., * 1% significance.

Consider `Nc1ccccc1C(=O)CCNc1ccc([N+](=O)[O-])cc1[N+](=O)[O-]` [2-(2-aminobenzoyl)-N-(2,4-dinitrophenyl)ethylamine], for which, in the experiment with MPTP-treated mice (1, 3 or 10 mg/kg, compared to the MPTP vehicle group), the “locomotion, rearing and total activity of MPTP-treated mice” value is “improved significantly”. In addition, the LOCOMOTION in the experiment with MPTP-treated mice (setting [1]) was 273 ± 64 counts; with MPTP-treated mice (setting [2]), 473 ± 108 counts; with MPTP-treated mice (setting [3]) it was 510 ± 107 counts; in the experiment with MPTP-treated mice (setting [4]), 470 ± 110 counts. Moreover, the REARING was found to be 290 ± 73 counts in the experiment on MPTP-treated mice (setting [1]), 582 ± 145 counts in the experiment with MPTP-treated mice (setting [2]), 731 ± 110 counts with MPTP-treated mice (setting [3]) and 619 ± 102 counts with MPTP-treated mice (setting [4]). For the same molecule, the “TOTAL ACTIVITY” value in the experiment on MPTP-treated mice (setting [1]) is listed as 5160 ± 1093 counts; in the experiment on MPTP-treated mice (setting [2]), 6250 ± 625 counts; with MPTP-treated mice (setting [3]), 6563 ± 781 counts; in the experiment with MPTP-treated mice (setting [4]), 6250 ± 625 counts. The “effect on motor behaviour in the first 60-min period before L-Dopa” value in the experiment on MPTP-treated mice (MPTP mice, any dose (0.3-10 mg/kg i.p.), compared to MPTP-treated vehicle mice) is reported as “no effect at any dose”. In addition, the “all three behavioural parameters when administered together with a subthreshold dose of L-Dopa” value in the experiment on MPTP-treated mice (MPTP mice, with L-Dopa 5 mg/kg s.c.) is listed as “improved significantly”. For the same molecule, the “effect on motor variables in vehicle control animals” value in the experiment with MPTP-treated mice (vehicle control (non-MPTP) animals) is “no effects in any variable”. For the same molecule, the “activity on NMDA receptors” value in the experiment with NMDA receptors is “blocking activity”.
